Test results: patent US20120230951A1 (priority 2011, published 2012)
Read-outs that look alike come from different tables or passages of the source.

How the values were obtained:
[1] = system: GT-1a pRLuc H771b 75 S/I subgenomic replicon cell line; assay: HCV GT-1a replicon luciferase reporter assay; assay type: cell-based; conditions: Hepatitis C virus, GT1A, 72 h, read-out: GT-1a (IC50) (nM)
Summary of the method: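 Huh-7-derived subgenomic replicon cells (GT-1b Con1 2209-23, 5000/well; GT-1a H77 chimera with Con1 NS3 first 75 aa, 3000/well) in 5% FBS DMEM; compounds added 24 h post-plating, 3-fold dilutions, 1% DMSO. Renilla luciferase read after 72 h; EC50 is 50% signal reduction versus untreated, non-linear fit.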

[2] = system: HCV GT1b replicon (2209-23 cell line, GT-1b Con1 subgenomic replicon in Huh-7); assay: HCV GT1b replicon luciferase reporter assay; assay type: cell-based; conditions: Hepatitis C virus
Description: Determination of compounds HCV GT1b inhibitory replicon activity using the replicon luciferase reporter assay
The 2209-23 cell line was developed at Roche by stable transfection of the hepatoma cell line Huh-7 with a GT-1b Con1 subgenomic bicistronic replicon as previously described. Subgenomic replicon cell line was established in cured Huh7 cells, obtained from R. Bartenschlager (J. Virol. 2003 March; 77 (5):3007-19) The GT-1a H77 subgenomic replicon vector pRLuc H771b 75 S/I, was created by replacing the non structural region of the GT-1b Con1 subgenomic replicon by the one of the H77 strain, except for the first 75 amino acids of the NS3 protein that are from GT-1b Con1 strain. (J. Virol. 2001 77:5352-59) The GT-1a pRLuc H771b 75 S/I subgenomic replicon cell line was established in cured Huh7 cells, obtained from R. Bartenschlager. (J. Virol. 2003 March; 77 (5):3007-19)
All the subgenomic replicon cell lines were cultured in Dulbecco's Modified Eagle Medium (DMEM-Glutamax™-I; Invitrogen Cat #10569-010). The medium was supplemented with 10% Fetal Bovine Serum (Invitrogen Cat #10082-147), 1% penicillin/streptomycin (Mediatech Cat #30-002-CI) and 500 μg/ml of G418 (Mediatech Cat #30-234-CI). Cells were maintained at 37° C. in a humidified 5% CO2 atmosphere.
2209-23 cells were plated at a cell density of 5000 cells per well in 96 well plates (Becton Dickinson, Cat #35 3296). Cells were plated in 90 μl of Dulbecco's Modified Eagle Medium (DMEM-Glutamax™-I), (Invitrogen Cat #10569-010) medium was supplemented with 5% Fetal Bovine Serum (Invitrogen Cat #10082-147), 1% penicillin/streptomycin (Mediatech Cat #30-002-CI). The pRluc H771b 75 S/I cells were plated in 96-well plate at 3000 cells/well in DMEM-Glutamax™-I containing 5% FBS and 1% penicillin/streptomycin in 90 μl final volume. Cells were allowed to equilibrate for 24 hours at 37° C. and 5% CO2 at which time compounds were added. Compounds (or medium as a control) were added 24 hours post-plating in 3 fold dilutions at a final DMSO concentration of 1% in 10 ul volume. Renilla luciferase reporter signal was read 72 hours after addition of compounds using the Renilla Luciferase Assay System (Promega, cat #E2820). EC50 values were defined as the compound concentration at which a 50% reduction in the levels of renilla luciferase reporter was observed as compared to control samples in the absence of compound and was determined by non-linear fitting of compound dose-response data. The EC50 was approximated if maximum percentage inhibition was less than 90% and more than 70%.

[3] = Huh-7, 2209-23 cells (GT-1b Con1), Renilla luciferase read 72 hours after addition of compounds, read-out: GT-1b (IC50)
[4] = Huh-7, 2209-23 cells (GT-1b Con1), Renilla luciferase read 72 hours after addition of compounds

For `COC(=O)NC(C(=O)N1CCCC1c1ncc(-c2ccc(-c3ccc(-c4cnc([C@@H]5Cc6cc(Br)cc7c6N5C(=O)[C@@H](NC(=O)OC)CC7)[nH]4)cc3)cc2)[nH]1)C(C)C` (stereo in doubt) [Compound I-25, {(2S,5S)-9-Bromo-2-[5-(4′-{2-[(R)-1-((R)-2-methoxycarbonylamino-3-methyl-butyryl)-pyrrolidin-2-yl]-3H-imidazol-4-yl}-biphenyl-4-yl)-1H-imidazol-2-yl]-4-oxo-1,2,4,5,6,7-hexahydro-azepino[3,2,1-hi]indol-5-yl}-carbamic acid methyl ester], the IC50 [1] was 31.2 nM and the IC50 [2, 3] was 1.21 nM.

In the case of `COC(=O)N[C@H]1CCc2cccc3c2N(C1=O)[C@H](c1nc2ccc(-c4ccc(-c5ccc6nc([C@@H]7CCCN7C(=O)[C@@H](NC(=O)OC)C(C)C)[nH]c6c5)cc4)cc2[nH]1)C3` [Compound I-5, {(2S,5S)-2-[6-(4-{2-[(S)-1-((S)-2-Methoxycarbonylamino-3-methyl-butyryl)-pyrrolidin-2-yl]-3H-benzoimidazol-5-yl}-phenyl)-1H-benzoimidazol-2-yl]-4-oxo-1,2,4,5,6,7-hexahydro-azepino[3,2,1-hi]indol-5-yl}-carbamic acid methyl ester], the IC50 [1] is reported as 49.8 nM and the IC50 [2, 3] is reported as 0.093 nM.

Compound `COC(=O)N[C@H]1CCc2cccc3c2N(C1=O)[C@H](c1nc2ccc(-c4ccc5nc(-c6ccc7nc([C@@H]8CCCN8C(=O)[C@@H](NC(=O)OC)C(C)C)[nH]c7c6)cnc5c4)cc2[nH]1)C3` [Compound I-6] has an IC50 [1] of 17.5 nM and an IC50 [2, 3] of 0.2 nM.

In the case of `COC(=O)N[C@H]1CCc2cccc3c2N(C1=O)[C@H](c1ncc(-c2ccc(-c4ccc(-c5cnc(C6CC7(CCOCC7)CN6C(=O)[C@@H](NC(=O)OC)C(C)C)[nH]5)cc4)cc2)[nH]1)C3` (stereo partly drawn) [Compound I-9, {(2S,5S)-2-[5-(4′-{2-[2-((S)-2-Methoxycarbonylamino-3-methyl-butyryl)-8-oxa-2-aza-spiro[4.5]dec-3-yl]-3H-imidazol-4-yl}-biphenyl-4-yl)-1H-imidazol-2-yl]-4-oxo-1,2,4,5,6,7-hexahydro-azepino[3,2,1-hi]indol-5-yl}-carbamic acid methyl ester], the IC50 [1] is reported as 3.36 nM and the IC50 [2, 3] is reported as 0.03 nM.

With `COC(=O)N[C@H]1CCc2cccc3c2N(C1=O)[C@H](c1nc2ccc(-c4ccc(-c5cnc([C@@H]6CCCN6C(=O)[C@@H](NC(=O)OC)C(C)C)[nH]5)cc4)cc2[nH]1)C3` [Compound I-10, {(2S,5S)-2-[6-(4-{2-[(S)-1-((S)-2-Methoxycarbonylamino-3-methyl-butyryl)-pyrrolidin-2-yl]-3H-imidazol-4-yl}-phenyl)-1H-benzoimidazol-2-yl]-4-oxo-1,2,4,5,6,7-hexahydro-azepino[3,2,1-hi]indol-5-yl}-carbamic acid methyl ester] the IC50 [1] was 43.3 nM and the IC50 [2, 3] was 0.1 nM.

With `COC(=O)N[C@H]1CCc2cccc3c2N(C1=O)[C@H](c1nc2ccc(-c4ccc(-c5ccc(-c6cnc([C@@H]7CCCN7C(=O)[C@@H](NC(=O)OC)C(C)C)[nH]6)cc5)cc4)cc2[nH]1)C3` [Compound I-11, {(2S,5S)-2-[6-(4′-{2-[(S)-1-((S)-2-Methoxycarbonylamino-3-methyl-butyryl)-pyrrolidin-2-yl]-3H-imidazol-4-yl}-biphenyl-4-yl)-1H-benzoimidazol-2-yl]-4-oxo-1,2,4,5,6,7-hexahydro-azepino[3,2,1-hi]indol-5-yl}-carbamic methyl ester] the IC50 [1] was 19.2 nM and the IC50 [2, 3] was 2.82 nM.

`COC(=O)N[C@H]1CCc2cccc3c2N(C1=O)[C@H](c1ncc(-c2cnc4cc(-c5ccc(-c6cnc([C@@H]7CC(F)(F)CN7C(=O)[C@@H](NC(=O)OC)C(C)C)[nH]6)cc5)ccc4c2)[nH]1)C3` [Compound I-19, ((2S,5S)-2-{5-[7-(4-{2-[(S)-1-((S)-2-Methoxycarbonylamino-3-methyl-butyryl)-4,4-difluoro-pyrrolidin-2-yl]-3H-imidazol-4-yl}-phenyl)-quinolin-3-yl]-1H-imidazol-2-yl}-4-oxo-1,2,4,5,6,7-hexahydro-azepino[3,2,1-hi]indol-5-yl)-carbamic acid methyl ester trifluroacetic acid] showed an IC50 [1] of 2.89 nM and an IC50 ([2]; Huh-7, 72 h, read-out: GT-1b (IC50) (nM)) of 0.16 nM.

For `COC(=O)N[C@H]1CC(=O)c2cccc3c2N(C1=O)[C@H](c1ncc(-c2ccc(-c4ccc(-c5cnc([C@@H]6CCCN6C(=O)[C@@H](NC(=O)OC)C(C)C)[nH]5)cc4)cc2)[nH]1)C3` [Compound I-28, {(2S,5S)-2-[5-(4′-{2-[(S)-1-((S)-2-Methoxycarbonylamino-3-methyl-butyryl)-pyrrolidin-2-yl]-3H-imidazol-4-yl}-biphenyl-4-yl)-1H-imidazol-2-yl]-4,7-dioxo-1,2,4,5,6,7-hexahydro-azepino[3,2,1-hi]indol-5-yl}-carbamic acid methyl ester], the IC50 [1] was 1.81 nM and the IC50 [2, 3] was 0.01 nM.

`COC(=O)N[C@H]1CC(O)c2cccc3c2N(C1=O)[C@H](c1ncc(-c2ccc(-c4ccc(-c5cnc([C@@H]6CCCN6C(=O)[C@@H](NC(=O)OC)C(C)C)[nH]5)cc4)cc2)[nH]1)C3` (stereo partly drawn) [Compound I-29, {(2S,5S)-7-Hydroxy-2-[5-(4′-{2-[(S)-1-((S)-2-methoxycarbonylamino-3-methyl-butyryl)-pyrrolidin-2-yl]-3H-imidazol-4-yl}-biphenyl-4-yl)-1H-imidazol-2-yl]-4-oxo-1,2,4,5,6,7-hexahydro-azepino[3,2,1-hi]indol-5-yl}-carbamic acid methyl ester] showed an IC50 [1] of 1.02 nM and an IC50 [2, 3] of 0.01 nM.

Compound `COC(=O)N[C@H]1CCc2cccc3c2N(C1=O)[C@H](c1ncc(-c2ccc(-c4ccc5cc(-c6cnc([C@@H]7CCCN7C(=O)[C@@H](NC(=O)OC)C(C)C)[nH]6)ccc5c4)cc2)[nH]1)C3` [Compound I-31, {(2S,5S)-2-[5-(4-(6-{2-[(S)-1-((S)-2-Methoxycarbonylamino-3-methyl-butyryl)-pyrrolidin-2-yl]-3H-imidazol-4-yl}-naphthalen-2-yl)-phenyl)-1H-imidazol-2-yl]-4-oxo-1,2,4,5,6,7-hexahydro-azepino[3,2,1-hi]indol-5-yl}-carbamic acid methyl ester] has an IC50 [1] of 1.13 nM and an IC50 [2, 3] of 0.41 nM.

Compound `COC(=O)N[C@H]1CCc2cccc3c2N(C1=O)[C@H](c1ncc(-c2ccc(-c4ccc(-c5cnc([C@@H]6CCCN6C(=O)[C@@H](NC(=O)OC)C(C)C)[nH]5)cc4)c(F)c2)[nH]1)C3` [Compound I-35, {(2S,5S)-2-[5-(2-Fluoro-4′-{2-[(S)-1-((S)-2-methoxycarbonylamino-3-methyl-butyryl)-pyrrolidin-2-yl]-1H-imidazol-4-yl}-biphenyl-4-yl)-1H-imidazol-2-yl]-4-oxo-1,2,4,5,6,7-hexahydro-azepino[3,2,1-hi]indol-5-yl}-carbamic acid methyl ester] has an IC50 [1] of 5.92 nM and an IC50 [2, 3] of 0.01 nM.

With `COC(=O)N[C@H]1CCc2cccc3c2N(C1=O)[C@H](c1ncc(-c2ccc(-c4ccc(-c5cnc([C@@H]6CCCN6C(=O)[C@@H](NC(=O)OC)C(C)C)[nH]5)cc4)cc2)[nH]1)C3` [Compound I-66, {(2S,5S)-2-[5-(4′-{2-[(S)-1-((S)-2-Methoxycarbonylamino-3-methyl-butyryl)-pyrrolidin-2-yl]-3H-imidazol-4-yl}-biphenyl-4-yl)-1H-imidazol-2-yl]-4-oxo-1,2,4,5,6,7-hexahydro-azepino[3,2,1-hi]indol-5-yl}-carbamic acid methyl ester] the EC50 [2, 4] was 0.036 nM.

Work on `COC(=O)N[C@H]1CCc2cccc3c2N(C1=O)[C@H](c1ncc(-c2ccc(-c4ccc(-c5cnc([C@@H]6CCCN7C(=O)CC[C@H](NC(=O)OC)C(=O)N67)[nH]5)cc4)cc2)[nH]1)C3` [Compound I-67] yielded an EC50 [2, 4] of 0.528 nM.

`COC(=O)N[C@H]1CCc2cccc3c2N(C1=O)[C@H](c1nc2ccc(-c4ccc5cc(-c6cnc([C@@H]7CCCN7C(=O)[C@@H](NC(=O)OC)C(C)C)[nH]6)ccc5c4)cc2[nH]1)C3` [Compound I-68] was tested, and the EC50 [2, 4] was 0.062 nM.
